{"source": "patent US11859252B2", "about": "“Diagnostic and therapeutic methods for cancer” (Genentech, Inc., priority 2017, dated 2024)", "key": {"pMEK, pERK, pRSK, pAKT": {"tested_on": "pMEK, pERK, pRSK, pAKT", "assay": "Immunoblot of pathway markers after compound treatment", "format": "cell-based", "conditions": "A549 and HCT-116; 1 μM HM95573, 250 nM cobimetinib; FIGS. 5D-5E", "method": "(§1) Cells lysed in lysis buffer (0.5% NP40, 20 mM Tris, pH 7.5, 137 mM NaCl, 10% glycerol, 1 mM EDTA) plus protease inhibitor mixture-complete mini (Roche Applied Science, 11836170001) and phosphatase inhibitor mix (Thermo, 78426). Lysates were centrifuged at 15,000 rpm for 10 minutes and the protein concentration determined using BCA (Thermo, 23227). Equal amounts of protein were subjected to SDS-PAGE NuPAGE 4-12% Bis-Tris Gel (Novex, WG-1403) and transferred to nitrocellulose membrane (BioRad, 170-4159). After blocking in blocking buffer (Li-Cor, 927-40000), membranes were incubated with the indicated primary antibodies and analyzed either by the addition of secondary antibodies IRDye 680LT Goat anti-Mouse IgG (H+L) (Li-Cor, 926-68050) or IRDye 800CW goat anti-Rabbit IgG (H+L) (Li-Cor, 926-32211). The membranes were visualized on the LiCor Odyssey CLx Scanner."}, "[1]": {"tested_on": "KRAS mutant syngeneic CRC xenograft model CT26", "assay": "CT26 tumor growth model", "format": "in vivo", "conditions": "5 mg/kg each orally once a day, 21 days, vs either agent alone, FIGS. 5F-5G"}, "[2]": {"tested_on": "196 lung, colon, skin, and ovarian cancer cell lines", "assay": "196 cell line screen, HM95573 and cobimetinib co-dilution", "format": "cell-based", "method": "Compounds were screened in nine-point dose response using a three-fold dilution. Cells were seeded into 384-well plates 24 hours prior to compound addition. Cells were then incubated with compound for 72 hours or 120 hours before assaying viability (CellTiter-Glo, Promega). Assays were performed in biological triplicate. Cells were incubated (37° C., 5% CO2) in RPMI-1640, 2.5% FBS (72 hour assay) or 5% FBS (120 hour assay), and 2 mM glutamine throughout the assay. The reported IC50 and mean viability metrics are as follows: IC50 is the dose at which the estimated inhibition is 50% relative to untreated wells (i.e., absolute IC50). Mean viability is equivalent to the area under the log-dose/viability curve divided by the total number of tested doses.\nFor combination synergy studies, cells were plated in 384-well plates (Corning) and treated with varying concentrations of compound, either alone or in combination for 72 hours. Cell viability was determined using CellTiter-Glo Luminescent Cell Viability Assay (Promega, G7573). Synergistic effects were determined using the Bliss independence analysis methods (Greco et al. Pharmacol. Rev. 47: 331-385, 1995; Chou and Talalay. Adv. Enzyme Regul. 22:27-55, 1984; Chou. Cancer Res. 70: 440-446, 2010; Bliss. Ann. Appl. Biol. 25: 31, 1939)."}, "[3]": {"tested_on": "MAPK pathway signaling (pERK, pRSK, DUSP6, SPRY4)", "assay": "Tumor pharmacodynamics in tumor-bearing mice", "format": "in vivo", "conditions": "combination of LY3009120 and GDC-0973 vs either alone, 4 days of treatment, FIG. 3C", "method": "GEM model tumor samples were collected and stored in RNALater (Qiagen, Valencia, CA). Total RNA was extracted with RNeasy Plus Mini kit (Qiagen) following manufacturer's instructions. RNA quantity was determined using Nanodrop (Thermo Scientific, Waltham, MA).\nTranscriptional readouts were assessed using either a Fluidigm instrument or standard RT-PCR assays according to manufacturer's recommendations. RNA (100 ng) was subjected to cDNA synthesis/pre-amplification reactions using the Applied Biosystems High Capacity cDNA RT Kit and TaqMan PreAmp Master Mix as per the manufacturer's protocol (Life Technologies, Carlsbad, CA). […]\nTo prepare protein lysates, cells were washed once with ice-cold PBS and lysed in 1× Cell Extraction Buffer (Invitrogen) supplemented with protease inhibitor tablet (Roche) and phosphatase inhibitors (Sigma). Protein concentration was determined using BCA Protein Assay (Pierce). […] Antigen-antibody interaction was detected with HRP-conjugated goat anti-rabbit and goat anti-mouse antibodies (Jackson ImmunoResearch) using enhanced chemiluminescence detection reagents (Pierce) or with IRDye 800 conjugated, affinity purified anti rabbit IgG (LI-COR Biosciences) and Alexa Fluor 680 goat anti mouse IgG (Life Technologies) secondary antibodies using the Odyssey Infrared Imaging System (LI-COR Biosciences)."}, "[4]": {"tested_on": "NRAS mutant melanoma cell line", "assay": "Viability of NRAS mutant melanoma versus BRAF-V600E and wild-type lines", "format": "cell-based", "method": "Compounds were screened in nine-point dose response using a three-fold dilution. Cells were seeded into 384-well plates 24 hours prior to compound addition. Cells were then incubated with compound for 72 hours or 120 hours before assaying viability (CellTiter-Glo, Promega). Assays were performed in biological triplicate. […] Mean viability is equivalent to the area under the log-dose/viability curve divided by the total number of tested doses."}, "A549 cells": {"tested_on": "A549 cells", "assay": "Clonogenic (colony growth) assay", "format": "cell-based", "method": "Cells were plated in duplicate in 6-well plates at 10,000 cells/well, allowed to attach overnight and treated for 8 days with the indicated compounds. Media with appropriate compounds was replenished every 72 hours. At 8 days cells were rinsed once with PBS, fixed and stained with crystal violet solution (Sigma Aldrich, HT90132) for 20 minutes and washed with water."}, "[5]": {"tested_on": "HCT116 colon xenograft tumor", "assay": "HCT116 colon xenograft tumor model", "conditions": "for tumor growth, single agent: LY-3009120 25 mg/kg IP QD, cobimetinib 5 mg/kg PO QD", "procedure": "The formulations were mixed well by vortexing before dosing. Test articles were stored in a refrigerator set to maintain a temperature range of 4° C.-7° C.\nOnly animals that appeared to be healthy and that were free of obvious abnormalities were used for each study. Tumor volumes were determined using digital calipers (Fred V. Fowler Company, Inc.) using the formula (L×W×W)/2. […] Mice were weighed twice a week using a standard scale."}, "[6]": {"assay": "Plasma and tumor drug concentrations", "format": "in vivo, mice", "conditions": "combination with GDC-0973, FIG. 3D"}, "BRAF-CRAF heterodimer": {"tested_on": "BRAF-CRAF heterodimer", "assay": "CRAF immunoprecipitation (RAF dimerization)", "format": "cell-based", "method": "(§2) Cells were plated and lysed as described in immunoblotting method. Cell lysates were incubated with anti-CRAF (Millipore 07-396) or anti-BRAF antibody (Millipore 07-453) and 50 μl of Protein A agarose beads (Millipore 16-125) for 2 h at 4° C. After washing with lysis buffer plus protease and phosphatase inhibitor mixtures, protein A beads were incubated with 0.4 μg of unactive MEK1 (Millipore 14-420) in 40 μl of kinase buffer (20 mM MOPS, pH 7.2, 25 mM β-glycerol phosphate, 5 mM EGTA, 1 mM sodium orthovanadate, 1 mM DTT, 120 μM ATP, 18 mM MgCl2) for 30 min at 30° C. Samples were then analyzed by Western blot."}, "pEGFR": {"tested_on": "pEGFR", "assay": "Immunoblot of pEGFR after cobimetinib", "format": "cell-based", "conditions": "cobimetinib 250 nM, 24 hours; FIG. 6K", "method": "as §1"}, "[7]": {"tested_on": "A549 KRAS-mutant lung cancer cell line", "assay": "Tool compound combination screen with AZ-628", "format": "cell-based", "conditions": "1 μM AZ-628 versus DMSO, FIG. 1D-1E", "method": "A compound library comprising 480 compounds arrayed in 9-point dose response was screened in the absence or presence of a fixed dose of either AZ-628 or DMSO in A549 cells. A549 cells were seeded into 384 well plates, and compound was added 24 h later. Cell viability was determined 120 h post-compound addition (CellTiter Glo). Curves were fitted, and both IC50 and mean viability metrics were calculated. The IC50 is the dose at which inhibition is 50% relative to untreated wells. The mean viability is the average of the fitted viabilities at each tested dose. Mean viability is equivalent to the area under the log-dose/viability curve divided by the total number of tested doses. All data were fitted using Genedata Screener (GDS) software. The combination metric was the difference in mean viability between the AZ-628 treated arm and the DMSO treated arm for each compound."}, "RAF dimers": {"biological_target": "T1, RAF dimers (Homo sapiens, UniProt P04049+P15056)", "T1 construct": "Cobimetinib-induced RAF dimers were immunoprecipitated from A549 cells; endogenous in cells; A549, H2122 and HCT116 for cobimetinib induction", "T1 sequence (P04049 whole entry)": "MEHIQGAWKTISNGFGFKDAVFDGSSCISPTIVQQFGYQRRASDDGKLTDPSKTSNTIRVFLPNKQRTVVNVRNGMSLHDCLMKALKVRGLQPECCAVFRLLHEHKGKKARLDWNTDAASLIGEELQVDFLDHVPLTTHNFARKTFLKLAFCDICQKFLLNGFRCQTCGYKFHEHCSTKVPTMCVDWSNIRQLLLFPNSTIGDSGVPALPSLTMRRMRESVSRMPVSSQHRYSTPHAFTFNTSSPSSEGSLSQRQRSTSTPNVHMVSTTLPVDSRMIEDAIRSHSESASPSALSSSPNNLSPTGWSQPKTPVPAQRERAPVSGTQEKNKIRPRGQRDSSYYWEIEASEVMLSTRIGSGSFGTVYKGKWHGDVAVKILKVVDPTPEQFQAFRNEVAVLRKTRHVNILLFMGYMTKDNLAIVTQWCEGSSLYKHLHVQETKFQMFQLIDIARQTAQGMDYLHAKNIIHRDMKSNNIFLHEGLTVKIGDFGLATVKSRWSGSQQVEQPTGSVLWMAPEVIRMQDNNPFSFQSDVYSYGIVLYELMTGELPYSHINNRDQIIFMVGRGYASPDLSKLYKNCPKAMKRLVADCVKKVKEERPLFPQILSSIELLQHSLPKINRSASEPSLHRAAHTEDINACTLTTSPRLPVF", "T1 sequence (P15056 2-766 limits assumed)": "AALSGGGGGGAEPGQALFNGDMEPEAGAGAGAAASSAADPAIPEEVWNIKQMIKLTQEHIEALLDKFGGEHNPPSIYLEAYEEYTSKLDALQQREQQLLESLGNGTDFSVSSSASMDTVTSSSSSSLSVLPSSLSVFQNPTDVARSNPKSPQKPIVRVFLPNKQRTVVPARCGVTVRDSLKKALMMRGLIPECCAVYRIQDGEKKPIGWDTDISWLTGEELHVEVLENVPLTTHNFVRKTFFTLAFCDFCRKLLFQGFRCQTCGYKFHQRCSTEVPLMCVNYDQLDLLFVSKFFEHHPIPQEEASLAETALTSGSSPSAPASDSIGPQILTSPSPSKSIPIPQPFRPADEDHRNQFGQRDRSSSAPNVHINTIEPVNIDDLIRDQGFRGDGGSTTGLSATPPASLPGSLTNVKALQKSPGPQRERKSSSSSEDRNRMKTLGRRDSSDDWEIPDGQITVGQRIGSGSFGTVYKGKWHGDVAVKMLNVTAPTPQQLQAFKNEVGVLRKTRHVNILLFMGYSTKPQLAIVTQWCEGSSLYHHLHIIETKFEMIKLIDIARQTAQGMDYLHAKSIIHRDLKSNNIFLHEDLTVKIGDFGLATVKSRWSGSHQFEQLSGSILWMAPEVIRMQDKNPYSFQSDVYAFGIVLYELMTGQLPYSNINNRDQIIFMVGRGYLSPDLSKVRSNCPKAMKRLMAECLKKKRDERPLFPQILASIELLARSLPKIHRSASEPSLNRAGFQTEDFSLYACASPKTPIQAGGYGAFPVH", "assay": "In vitro kinase assay of immunoprecipitated RAF with unactive MEK", "format": "biochemical", "method": "as §2"}, "RAS-GTP": {"tested_on": "RAS-GTP", "assay": "Ras activity assay (RAF1-RBD pull-down)", "format": "cell-based", "method": "Levels of active GTP-loaded Ras were determined by GST-Raf-RBD pull-down assay (Thermo Scientific, 16117). In brief, GST-Raf-RBD fusion proteins were incubated with glutathione beads, and cells were collected in lysis buffer as recommended by the manufacturer. The cell lysates were incubated with the GST-Raf-RBD immobilized beads for 1.5 hours at 4° C. Bound proteins were eluted with SDS sample buffer and analyzed by Western blot."}, "pMEK": {"tested_on": "pMEK", "assay": "Immunoblot of pMEK after cobimetinib in KRAS mutant and wild-type cell lines", "format": "cell-based", "conditions": "for pMEK levels after treatment: cobimetinib 24 hours", "method": "as §1"}}, "note": "Entries after “also recorded” stand apart in the source; their conditions may differ."}
{"smiles": "Cc1ccc2c(Nc3cccc(Cl)c3F)nccc2c1NC(=O)c1csc2c(N)ncnc12", "note": "[HM95573]", "values": [{"measurement": "combination activity with cobimetinib on pMEK, pERK, pRSK", "setting": "pMEK, pERK, pRSK, pAKT", "result": "combination activity was also observed; also recorded: combination activity is observed"}, {"measurement": "tumor growth inhibition (TGI), combination with cobimetinib", "setting": "[1]", "result": "improved tumor growth inhibition (TGI) in vivo"}, {"measurement": "association of combination sensitivity with KRAS-G13D", "setting": "[2]; HM95573 and cobimetinib, colorectal and lung lines, FIG. 6D", "result": "This trend was most evident in colorectal cancer lines"}, {"measurement": "synergy score (positive Bliss excess) with cobimetinib by genotype", "setting": "[2]; co-dilution with cobimetinib, three days, FIG. 5H", "result": "significantly higher synergy scores were observed in RAS mutant cell lines compared to either BRAF-V600 mutants or wild-type; also recorded: greater synergy in RAS mutant cell lines and a subset of RAS/RAF wild-type cell lines relative to BRAF-V600 cell lines"}]}
{"smiles": "CNc1ncc2cc(-c3cc(NC(=O)NCCC(C)(C)C)c(F)cc3C)c(C)nc2n1", "note": "[LY3009120]", "values": [{"measurement": "suppression of DUSP6 and SPRY4 in tumor", "setting": "[3]", "result": "deeper suppression of downstream MAPK target genes, DUSP6 and SPRY4"}, {"measurement": "suppression of pERK and pRSK in tumor", "setting": "[3]; all time points", "result": "better suppression of pERK and pRSK"}, {"measurement": "effect on mean viability, NRAS mutant vs BRAF-V600E", "setting": "[4]; FIG. 8A", "result": "approximately equivalent effects on mean viability"}, {"measurement": "synergy with cobimetinib in colony formation", "setting": "A549 cells; 8 days, crystal violet, FIG. 2F, 5E", "result": "marked synergy"}, {"measurement": "tumor growth, combination with cobimetinib", "setting": "[5]; HCT116, LY3009120+GDC-0973, FIG. 3A", "result": "capable of effectively regressing the tumors"}, {"measurement": "tumor growth, single agent", "setting": "[5]; HCT116, FIG. 3A", "result": "modestly inhibited tumor growth"}, {"measurement": "tolerability / body weight", "setting": "[5]; HCT116 xenograft mice, combination with cobimetinib, FIG. 3B", "result": "well tolerated in the mice, resulting in little or minimal changes in body weight post-treatment"}, {"measurement": "drug exposure in combination", "setting": "[6]", "result": "not due to increased drug exposure"}]}
{"smiles": "O=C(c1ccc(F)c(F)c1Nc1ccc(I)cc1F)N1CC(O)([C@@H]2CCCCN2)C1", "note": "[cobimetinib]", "values": [{"measurement": "concentration at which BRAF-CRAF heterodimer formation and increase in kinase activity occur", "setting": "BRAF-CRAF heterodimer; A549, dose-dependent, FIG. 4E", "result": "50 to 100", "unit": "nM"}, {"measurement": "BRAF co-immunoprecipitation with CRAF", "setting": "BRAF-CRAF heterodimer; KRAS mutant cell lines (A549, H2122, and HCT116), FIG. 4A", "result": "BRAF strongly co-immunoprecipitated with CRAF"}, {"measurement": "EGFR activation (pEGFR levels)", "setting": "pEGFR", "result": "little evidence of EGFR activation"}, {"measurement": "cell viability and 1050, NRAS mutant vs BRAF-V600E", "setting": "[4]; separate study, FIGS. 8C and 8D", "result": "showed greater efficacy in the BRAF-V600E cell line relative to the NRAS mutant cell line"}, {"measurement": "single-agent effect on cell growth", "setting": "A549 cells; 8-day clonogenic, 50-100 nM cobimetinib, 100 nM AZ-628", "result": "had little effect on cell growth on their own"}, {"measurement": "hit ranking / mean viability difference with AZ-628", "setting": "[7]", "result": "top hit; also recorded: scored highest among the compounds tested"}, {"measurement": "tumor growth, single agent", "setting": "[5]; HCT116, FIG. 3A", "result": "modestly inhibited tumor growth"}, {"measurement": "kinase activity of RAF dimers after treatment", "setting": "RAF dimers; KRAS mutant cell lines, vs DMSO, FIG. 4A", "result": "highly active"}, {"measurement": "pMEK levels in in vitro RAF kinase assay", "setting": "RAF dimers; colorectal lines with or without synergy, cobimetinib, FIG. 5B-5C", "result": "strong increases in pMEK levels after cobimetinib treatment were observed, primarily in the lines showing synergy"}, {"measurement": "RAS-GTP levels", "setting": "RAS-GTP; KRAS mutant lines, cobimetinib treatment, FIG. 4A", "result": "elevated RAS-GTP levels at baseline and upon cobimetinib treatment; also recorded: increased RAS-GTP levels"}, {"measurement": "active RAS-GTP in response to treatment", "setting": "RAS-GTP; panel of colorectal cancer cell lines, FIG. 5I", "result": "Only cell lines showing synergy showed increased active RAS-GTP in response to cobimetinib treatment"}, {"measurement": "pMEK levels after treatment", "setting": "pMEK; KRAS mutant vs KRAS wild-type cells, FIG. 4A", "result": "an increase in the pMEK levels in the KRAS mutant cells but not the KRAS wild-type cells"}, {"measurement": "pMEK levels after treatment", "setting": "pMEK; synergistic vs non-synergistic colon and lung lines, FIGS. 4B-4D", "result": "an increase in the pMEK levels in the KRAS mutant and wild-type synergistic cells but not the KRAS mutant and wild-type non-synergistic cells"}, {"measurement": "induction of pMEK, KRAS-G13D vs non-KRAS-G13D", "setting": "pMEK; colorectal cell lines, cobimetinib 250 nM, 24 hr, FIG. 6E", "result": "stronger induction of pMEK in G13D cell lines; also recorded: more enhanced induction of pMEK following MEK inhibition relative to other KRAS mutants"}]}
